Assay results taken from patent US6372209B1, “Vaginal lactobacillus medicant” (Gyne Logix, Inc., priority 1997, dated 2002).

Experiments:
women = assay: Pooled clinical trials with the CTV-05 suppository (Examples 5-7); format: in vivo, human
Excerpt: The studies presented in Examples 5 6, and 7 have shown that the Lactobacilli of the present invention can be used in a suppository to recolonize the vagina with Lactobacilli. Over fifty women have been included in clinical trials with the Lactobacillus crispatus CTV-05 suppository. […] Furthermore, the present inventors have developed fingerprinting methods which allow the identification of the suppository strain of L. crispatus in human trials.

[1] = system: women who had bacterial vaginosis; assay: Suppository as treatment for bacterial vaginosis; format: in vivo, human
Excerpt: In this study, 13 women who had bacterial vaginosis were given Lactobacillus crispatus CTV-05 suppositories twice daily for seven days. The purpose of this study was to evaluate whether Lactobacillus suppositories could be used as a treatment for bacterial vaginosis. Only 1 of 10 women who returned for follow-up was cured of bacterial vaginosis at the one week follow-up visit.

[2] = system: Candida albicans ATCC 60193 (cervical isolate); assay: Agar overlay zone of inhibition of yeast growth; format: cell-based
Description: (§1) MRS agar was allowed to harden at a 5 mm slant. Lactobacillus crispatus CTV-05 was streaked across the diameter of the plate and was grown for 24, 48 or 72 hours under both anaerobic and ambient atmospheres. Control strains of Lactobacillus jensenii CTV-01, Lactobacillus crispatus CTV-02, Lactobacillus crispatus CTV-03, and Lactobacillus crispatus CTV-04 were grown in the same way. The plates were overlayed with YM agar with 10 mM CNNaS (sodium thiocyanate, previously reported to be an inhibitor of yeast growth) or without CNNaS. The agar overlays were inoculated with one of two strains of Candida albicans ATCC 60193 (cervical isolate) or Candida albicans ATCC 14053 (human blood isolate). Zones of inhibition were measured. […] Therefore, Lactobacillus crispatus CTV-05 inhibits yeast growth in vitro.

[3] = system: Candida albicans ATCC 14053 (human blood isolate); assay: Agar overlay zone of inhibition of yeast growth; format: cell-based
Description: as §1

[4] = Cell to preservation matrix ratio: viability counts pre- and post-dry; format: physicochemical; settings: 30 microliter aliquots
Description: Experiments were conducted to determine the preservative capacity of the suspending medium by addition of different amounts of cells of strain CTV-05 per volume of medium. The Lactobacilli were grown anaerobically on 2 inch squares on MRS agar plates. A 2-inch square of agar is the equivalent of 10 ml of broth. The anticipated yield per plate was 2×10^9 CFUs. Inoculated matrix was preserved in aliquots of 30 microliters.

[5] = Stability of viability: room temperature and refrigerated storage (plate count, MRS agar); format: physicochemical
Description: (1.5) Stability of viability: Samples of each evaluated strain were retained for shelf-life studies at room temperature and refrigerated storage. At selected time intervals, samples were tested for the number of colony-forming-units using the Plate Count method with MRS agar.
Strain CTV-05 was tested in a gelatin capsule suppository during storage at 55° C., 45° C., 35° C. and at room and refrigeration temperatures. […] Between the fourth and ninth weeks counts dropped to 9.8×10^7 per suppository and have remained at 10^7 for 25 months. […]

[6] = Lactobacillus grown anaerobically for 24, 48 or 72 hours
[7] = Lactobacillus grown under ambient atmosphere, with or without CNNaS
[8] = 4 plates/5 ml matrix, 24 hr. Growth Period
[9] = 4 plates/5 ml matrix, 48 hr. Growth Period
[10] = 6 plates/5 ml matrix, 24 hr. Growth Period
[11] = 6 plates/5 ml matrix, 48 hr. Growth Period
[12] = 8 plates/5 ml matrix, 24 hr. Growth Period
[13] = 8 plates/5 ml matrix, 48 hr. Growth Period
[14] = 10 plates/5 ml matrix, 24 hr. Growth Period
[15] = 10 plates/5 ml matrix, 48 hr. Growth Period

Lactobacillus crispatus CTV-05
women with normal vaginal flora remaining colonized (women; after one month, gelatin capsule inserted into the vagina): greater than 80% | side effects associated with use (women; over fifty women in clinical trials): None of the women who received the suppository had any side effects | women successfully colonized by the suppository strain ([1]; suppositories twice daily for seven days, follow-up): 7 of the 10 | women cured of bacterial vaginosis ([1]; suppositories twice daily for seven days, one week follow-up visit): 1 of 10 | side-effects ([1]; twice daily for seven days): None of the women experienced any side-effects | visual or microscopic evidence of inflammation ([1]; twice daily for seven days): none had either visual or microscopic evidence of inflammation | inhibition of Candida growth [2, 6]: effectively inhibited growth | inhibition of Candida growth [2, 7]: unable to inhibit | Zone of Inhibition (in millimeters) ([2]; Organism Growth Time Period 48 hours): 70 to 0 mm | Zone of Inhibition (in millimeters) ([2]; Organism Growth Time Period 72 hours): 70 to 0 mm | inhibition of Candida growth [3, 6]: effectively inhibited growth | inhibition of Candida growth [3, 7]: unable to inhibit | Actual Yields, Post-dry [4, 8]: 1.1 × 10^7 CFUs | Actual Yields, Pre-dry [4, 8]: 7.9 × 10^7 CFUs | Actual Yields, Post-dry [4, 9]: 6.1 × 10^8 CFUs | Actual Yields, Pre-dry [4, 9]: 6.0 × 10^8 CFUs | Actual Yields, Post-dry [4, 10]: 2.1 × 10^7 CFUs | Actual Yields, Pre-dry [4, 10]: 1.9 × 10^8 CFUs | Actual Yields, Post-dry [4, 11]: 3.0 × 10^8 CFUs | Actual Yields, Pre-dry [4, 11]: 7.8 × 10^8 CFUs | Actual Yields, Post-dry [4, 12]: 3.6 × 10^7 CFUs | Actual Yields, Pre-dry [4, 12]: 6.9 × 10^7 CFUs | Actual Yields, Post-dry [4, 13]: 4.3 × 10^8 CFUs | Actual Yields, Pre-dry [4, 13]: 9.8 × 10^8 CFUs | Actual Yields, Post-dry [4, 14]: 4.0 × 10^7 CFUs | Actual Yields, Pre-dry [4, 14]: 6.7 × 10^7 CFUs | Actual Yields, Post-dry [4, 15]: 4.1 × 10^8 CFUs | Actual Yields, Pre-dry [4, 15]: 1.5 × 10^8 CFUs | CFUs per Suppository ([5]; Refrigerated (2-8° C.), 1 month): 5.20E+08 CFUs per Suppository | CFUs per Suppository ([5]; Refrigerated (2-8° C.), 2 months): 2.20E+08 CFUs per Suppository | CFUs per Suppository ([5]; Refrigerated (2-8° C.), 3 months): 2.30E+08 CFUs per Suppository | CFUs per Suppository ([5]; Refrigerated (2-8° C.), 5 months): 2.80E+08 CFUs per Suppository | CFUs per Suppository ([5]; Refrigerated (2-8° C.), 6 months): 1.70E+08 CFUs per Suppository | CFUs per Suppository ([5]; Refrigerated (2-8° C.), 7 months): 2.60E+08 CFUs per Suppository | CFUs per Suppository ([5]; Refrigerated (2-8° C.), 9 months): 3.10E+08 CFUs per Suppository | CFUs per Suppository ([5]; Refrigerated (2-8° C.), 11 months): 2.50E+08 CFUs per Suppository | CFUs per Suppository ([5]; Refrigerated (2-8° C.), 15 months): 9.20E+07 CFUs per Suppository | CFUs per Suppository ([5]; Refrigerated (2-8° C.), 18 months): 1.50E+07 CFUs per Suppository | CFUs per Suppository ([5]; Refrigerated (2-8° C.), 25 months): 5.00E+08 CFUs per Suppository | CFUs per Suppository ([5]; Room Temperature (25° C. ± 5° C.), 1 month): 1.30E+08 CFUs per Suppository | CFUs per Suppository ([5]; Room Temperature (25° C. ± 5° C.), 1 week): 3.80E+08 CFUs per Suppository | CFUs per Suppository ([5]; Room Temperature (25° C. ± 5° C.), 2 months): 9.80E+07 CFUs per Suppository | CFUs per Suppository ([5]; Room Temperature (25° C. ± 5° C.), 2 weeks): 3.20E+08 CFUs per Suppository | CFUs per Suppository ([5]; Room Temperature (25° C. ± 5° C.), 3 months): 1.83E+07 CFUs per Suppository | CFUs per Suppository ([5]; Room Temperature (25° C. ± 5° C.), 3 weeks): 3.05E+08 CFUs per Suppository | CFUs per Suppository ([5]; Room Temperature (25° C. ± 5° C.), 4 months): 3.25E+07 CFUs per Suppository | CFUs per Suppository ([5]; Room Temperature (25° C. ± 5° C.), 5 months): 3.80E+07 CFUs per Suppository | CFUs per Suppository ([5]; Room Temperature (25° C. ± 5° C.), 6 months): 1.70E+07 CFUs per Suppository | CFUs per Suppository ([5]; Room Temperature (25° C. ± 5° C.), 7 months): 1.60E+07 CFUs per Suppository | CFUs per Suppository ([5]; Room Temperature (25° C. ± 5° C.), 9 months): 4.70E+07 CFUs per Suppository | CFUs per Suppository ([5]; Room Temperature (25° C. ± 5° C.), 11 months): 2.80E+07 CFUs per Suppository | CFUs per Suppository ([5]; Room Temperature (25° C. ± 5° C.), 15 months): 2.20E+06 CFUs per Suppository | CFUs per Suppository ([5]; Room Temperature (25° C. ± 5° C.), 18 months): 4.70E+06 CFUs per Suppository | CFUs per Suppository ([5]; Room Temperature (25° C. ± 5° C.), 25 months): 1.60E+07 CFUs per Suppository | colony counts, stable level ([5]; refrigerated product, for 5 months): 10^8 per suppository | colony counts after drop ([5]; room temperature, between the fourth and ninth weeks): 9.8×10^7 per suppository | colony counts, stable level ([5]; room temperature, for 4 weeks): 10^8 per suppository | colony counts, level maintained ([5]; room temperature, for 25 months): 10^7 | CFU value at which product remained stable after drop from 10^8 at 2 months ([5]; stored at room temperature (25° C. +5° C.), for 25 months): 10^7 CFU | CFU value at which product was stable ([5]; stored refrigerated (2-8° C.), for 25 months): 10^8 CFU
